In PubChem BioAssay AID330 (DTP/NCI, 2004):
Values joined by “and” are separate entries in the source; they are usually repeats but may differ in a detail not shown here. Equal entries are not always repeated. Toxic doses and inconclusive results are not listed. Peptide text beside a SMILES is read from it. * marks the point of attachment. Cbz = O=C(OCc1ccccc1)*

Test system: P388 leukemia ip, CD2F1 mice, survival T/C
Assay: NCI In Vivo Anticancer Drug Screen. Data for tumor model P388 Leukemia (intraperitoneal) in CD2F1 (CDF1) mice
Settings: endpoint: median survival time, higher = longer survival
Summary of the method: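 Mice carrying the transplanted tumor received test compound or vehicle. Survival was recorded in each group, and the value is the treated-group measurement divided by that of the vehicle-treated control group.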

[1] = dose: 50.0 mg/kg/injection, schedule: Q01DX009 (ip), vehicle: saline with Tween-80
[2] = dose: 100.0 mg/kg/injection, schedule: Q01DX009 (ip), vehicle: saline with Tween-80
[3] = dose: 200.0 mg/kg/injection, schedule: Q01DX009 (ip), vehicle: saline with Tween-80

`CC(=O)CC(C)(C)c1ccccc1` was tested, and the T/C (dose: 25.0 mg/kg/injection, schedule: Q01DX009 (ip), vehicle: saline with Tween-80) was 106 % of control, the T/C [1] was 104 % of control and the T/C [2] was 107 % of control and 108 % of control. For the same molecule, the T/C [3] was 103 % of control and 116 % of control and the T/C (dose: 400.0 mg/kg/injection, schedule: Q01DX009 (ip), vehicle: saline with Tween-80) was 113 % of control and 95 % of control.
With `O=C(O)CSC(c1ccccc1)(c1ccc(-c2ccccc2)cc1)c1cccc2ccccc12` (configuration not stated) the T/C (dose: 50.0 mg/kg/injection, schedule: Q01DX005 (ip), vehicle: saline with Tween-80) was 95 % of control, the T/C (dose: 100.0 mg/kg/injection, schedule: Q01DX005 (ip), vehicle: saline with Tween-80) was 109 % of control and the T/C (dose: 200.0 mg/kg/injection, schedule: Q01DX005 (ip), vehicle: saline with Tween-80) was 109 % of control.
For `COc1c(Cl)c2c(c(OC)c1OC)-c1ccc(OC)c(=O)cc1C(NC(C)=O)CC2` (configuration not stated), the T/C (dose: 0.78 mg/kg/injection, schedule: Q01DX009 (ip), vehicle: Klucel (hydroxypropylcellulose) (HPC)) was 151 % of control, the T/C (dose: 1.56 mg/kg/injection, schedule: Q01DX009 (ip), vehicle: Klucel (hydroxypropylcellulose) (HPC)) was 179 % of control and 188 % of control and the T/C (dose: 3.12 mg/kg/injection, schedule: Q01DX009 (ip), vehicle: Klucel (hydroxypropylcellulose) (HPC)) was 199 % of control.
With `O=C(O)c1cnc2ccccn12` the T/C (dose: 50.0 mg/kg/injection, schedule: Q01DX009 (ip), vehicle: acetone) was 112 % of control, the T/C (dose: 50.0 mg/kg/injection, schedule: Q01DX009 (ip), vehicle: saline) was 95 % of control and the T/C (dose: 100.0 mg/kg/injection, schedule: Q01DX009 (ip), vehicle: acetone) was 117 % of control. The T/C (dose: 100.0 mg/kg/injection, schedule: Q01DX009 (ip), vehicle: saline) was 96 % of control, the T/C (dose: 200.0 mg/kg/injection, schedule: Q01DX009 (ip), vehicle: acetone) was 102 % of control and the T/C (dose: 200.0 mg/kg/injection, schedule: Q01DX009 (ip), vehicle: saline) was 107 % of control.
`N#CC1=CN=C2C=CC=C3N=C(C(Cl)(Cl)Cl)N=C1N32` was tested, and the T/C (dose: 15.0 mg/kg/injection, schedule: Q01DX005 (ip), vehicle: Klucel + Tween-80) was 92 % of control, the T/C (dose: 30.0 mg/kg/injection, schedule: Q01DX005 (ip), vehicle: Klucel + Tween-80) was 87 % of control and the T/C (dose: 60.0 mg/kg/injection, schedule: Q01DX005 (ip), vehicle: Klucel + Tween-80) was 93 % of control.
`CCCCCCCC/C=C\CCCCCCCCCCCC(=O)OC/C=C/COC(=O)c1ccccc1` was tested, and the T/C (dose: 50.0 mg/kg/injection, schedule: Q01DX009 (ip), vehicle: Klucel (hydroxypropylcellulose) (HPC)) was 100 % of control, the T/C (dose: 100.0 mg/kg/injection, schedule: Q01DX009 (ip), vehicle: Klucel (hydroxypropylcellulose) (HPC)) was 95 % of control and the T/C (dose: 200.0 mg/kg/injection, schedule: Q01DX009 (ip), vehicle: Klucel (hydroxypropylcellulose) (HPC)) was 100 % of control.
With `COC(=O)C(NC(=O)C1CCCN1C(=O)OCc1ccccc1)C(C)C` (stereo not drawn) (Cbz-Pro-Val-OMe; configuration not given here) the T/C [1] was 98 % of control, the T/C [2] was 104 % of control and the T/C [3] was 107 % of control.
For `Cc1ccc(NC(=O)Oc2ccc(F)cc2)c([N+](=O)[O-])c1`, the T/C [1] was 96 % of control, the T/C [2] was 95 % of control and the T/C [3] was 88 % of control.
With `C/C=C/N=NNc1ccccc1` the T/C (dose: 100.0 mg/kg/injection, schedule: Q04DX003 (ip), vehicle: saline + Tween-80 + alcohol) was 111 % of control, the T/C (dose: 200.0 mg/kg/injection, schedule: Q04DX003 (ip), vehicle: saline + Tween-80 + alcohol) was 112 % of control and the T/C (dose: 400.0 mg/kg/injection, schedule: Q04DX003 (ip), vehicle: saline + Tween-80 + alcohol) was 106 % of control.
For `O=C(Nc1n[nH]c(NC(=O)c2ccc([N+](=O)[O-])cc2)n1)c1ccc([N+](=O)[O-])cc1`, the T/C (dose: 50.0 mg/kg/injection, schedule: Q01DX005 (ip), vehicle: Klucel (hydroxypropylcellulose) (HPC)) was 93 % of control, the T/C (dose: 100.0 mg/kg/injection, schedule: Q01DX005 (ip), vehicle: Klucel (hydroxypropylcellulose) (HPC)) was 90 % of control and the T/C (dose: 200.0 mg/kg/injection, schedule: Q01DX005 (ip), vehicle: Klucel (hydroxypropylcellulose) (HPC)) was 90 % of control.
For `CCOC(=O)c1c[nH]c2oc(/C=N/N3CC(CN4CCOCC4)OC3=O)cc2c1=O` (configuration not stated), the T/C (dose: 50.0 mg/kg/injection, schedule: Q01DX005 (ip), vehicle: acid diluted with saline) was 114 % of control, the T/C (dose: 100.0 mg/kg/injection, schedule: Q01DX005 (ip), vehicle: acid diluted with saline) was 118 % of control and the T/C (dose: 100.0 mg/kg/injection, schedule: Q04DX002 (ip), vehicle: saline) was 113 % of control.
With `CC(=O)OCC1OC(CCC#N)C(OC(C)=O)C(OC(C)=O)C1OC(C)=O` (configuration not stated) the T/C (dose: 60.0 mg/kg/injection, schedule: Q01DX005 (ip), vehicle: saline with Tween-80) was 102 % of control and 100 % of control, the T/C (dose: 60.0 mg/kg/injection, schedule: Q01DX005 (ip), vehicle: saline) was 102 % of control and the T/C (dose: 120.0 mg/kg/injection, schedule: Q01DX005 (ip), vehicle: saline with Tween-80) was 98 % of control and 108 % of control. For the same molecule, the T/C (dose: 120.0 mg/kg/injection, schedule: Q01DX005 (ip), vehicle: saline) was 101 % of control, the T/C (dose: 240.0 mg/kg/injection, schedule: Q01DX005 (ip), vehicle: saline with Tween-80) was 100 % of control and 102 % of control and the T/C (dose: 240.0 mg/kg/injection, schedule: Q01DX005 (ip), vehicle: saline) was 101 % of control.
`CC(=O)NN=C(c1ccccc1)c1ccccc1` was tested, and the T/C [1] was 100 % of control, the T/C [2] was 100 % of control and the T/C [3] was 100 % of control.
